According to patent US20030199584A1, “Reduction of hair growth” (priority 2002, published 2003):
Like-named read-outs stand apart in the source and are kept apart here.

What was measured:
[1] = In vitro skin penetration assay, Protocol 2 (skin pretreated 15 minutes with formulation without DFMO); format: in vitro ADME, Golden, Syrian hamsters or Hartley guinea pigs; conditions: Tables 9 and 10
Text: (§1) An in vitro diffusion assay was established based on that reported by Franz. Dorsal skin from Golden, Syrian hamsters or Hartley guinea pigs is clipped with electric clippers, trimmed to the appropriate size and placed in a glass diffusion chamber. The receptor fluid consisted of phosphate buffered saline, an isotonic solution for maintaining cell viability and 0.1% sodium azide, a preservative and was placed in the lower chamber of the diffusion apparatus such that the level of the receptor fluid was in parallel with the mounted skin. After equilibration at 37° C. for at least 30 minutes, 10 μl or 20 μl of the test or control formulation containing equal amounts of DFMO were added to the surface of the skin and gently spread over the entire surface with a glass stirring rod. A radiotracer amount of 14C-DFMO (0.5-1 microCurie per diffusion chamber) was used in the formulations to assess DFMO penetration. Penetration of DFMO was determined by removing an aliquot (400 μL) periodically throughout the course of the experiment, and quantitating radioactivity using liquid scintillation.
This procedure is similar to that described in Protocol 1 with the exception that prior to the application of radiolabeled DFMO, the skin surfaces received 1 ml of the formulation without DFMO. After 15 minutes the formulation was removed and the surface of the skin was gently dried with a cotton swab. […]

[2] = In vitro diffusion (Franz) skin penetration assay, Protocol 1, 14C-DFMO through hamster skin; format: in vitro ADME, Golden, Syrian hamsters
Text: as §1

[3] = In vitro diffusion skin penetration assay of DFMO, skin species not named; format: in vitro ADME, Golden, Syrian hamsters or Hartley guinea pigs; conditions: for Fold-Enhancement DDP/Control: DDP 10%; for % Applied Dose of DFMO penetrated: cream formulation 1 with or without DDP 10%
Text: as §1

[4] = format: in vitro ADME; conditions: 1 %
Description: DFMO skin penetration was assessed using a modified protocol of the Franz diffusion assay. In this experiment either the SP33 formulation (without DFMO) or the SP33 formulation prepared with dipropylene glycol dimethylether (DPGDME) again with out DFMO was applied to the skin for […]. The formulations were then removed from the skins' surfaces, which were dried with a cotton swab. The hydroalcoholic formulation 1—containing 1% DFMO with radiotracer ^14C-DFMO—was applied to the skin and gently spread over the surface with a glass, stirring rod. Aliquots of the receptor fluid were removed at 3, 6 and 24 hours after DFMO application and penetration was determined using liquid scintillation. As shown in Table 6 enhancement of DFMO penetration through the skin occurred when dipropylene glycol […] was substituted for dipropylene glycol.

[5] = DFMO skin penetration after overnight pretreatment of the skin with fatty acid; format: in vitro ADME; conditions: skin pretreated overnight; DFMO in hydroalcoholic formulation; receptor fluid measured hourly over eight hours (FIG. 1, FIG. 2)
Text: as §1
Further confirmation of the cis fatty acid action on skin penetration was obtained by pretreating the skin overnight with oleic acid or elaidic acid. The following day DFMO was applied to the surface of the skin in the hydroalcoholic formulation.

Compound: CCCCCCCCCCCCCC(=O)OC(C)C [IPM, isopropyl myristate]
- Effect on penetration of DFMO through the skin (in words) [1]: significantly increased the penetration of DFMO through the skin

Compound: CCCCCCCCCCC/C=C\CCCCC(=O)O [Petroselenic Acid]
- Fold Enhancement of DFMO penetration [2]: 1.40 ± 1.5 fold

Compound: Tween-40
- Fold Enhancement of DFMO penetration [2]: 3.07 ± 1.65 fold

Compound: CCCCCCCC/C=C\CCCCCCCC(=O)O [Oleic Acid]
- Effect on DFMO skin penetration (in words) [2]: increase in skin penetration
- Fold Enhancement of DFMO penetration ([2]; Golden Syrian, hamster, 10 %): 2.85 ± .76 fold

Compound: Tween-20
- Fold Enhancement of DFMO penetration ([2]; Tween derivative 5% in Hydroalcoholic Formulation 1, hamster skin): 1.54 ± .47 fold

Compound: CCCCCCCCCCCCN1CCCC1=O [DDP, 1-dodecyl-2-pyrrolidanone]
- Fold-Enhancement DDP/Control ([3]; 2 hrs): 0.41 fold
- % Applied Dose of DFMO penetrated ([3]; 2 hrs): 0.15 ± .01 % Applied Dose
- Fold-Enhancement DDP/Control ([3]; 4 hrs): 0.91 fold
- % Applied Dose of DFMO penetrated ([3]; 4 hrs): 0.52 ± .08 % Applied Dose
- Fold-Enhancement DDP/Control ([3]; 6 hrs): 2.00 fold
- % Applied Dose of DFMO penetrated ([3]; 6 hrs): 1.26 ± .24 % Applied Dose
- Fold-Enhancement DDP/Control ([3]; 24 hrs): 5.11 fold
- % Applied Dose of DFMO penetrated ([3]; 24 hrs): 9.31 ± 1.38 % Applied Dose
- Increase in skin penetration by DFMO ([3]; DDP 10% in cream base Formulation-1): ≤ 5 fold

Compound: COCC(C)OCC(C)OC (centres unmarked) [DPGDME, dipropylene glycol dimethylether]
- % Applied Dose of DFMO penetrated ([4]; 3 h): 7.71 ± 3.1 % Applied Dose
- Fold-Enhancement ([4]; 3 h): 4.64 fold
- % Applied Dose of DFMO penetrated ([4]; 6 h): 9.55 ± 3.68 % Applied Dose
- Fold-Enhancement ([4]; 6 h): 3.93 fold
- % Applied Dose of DFMO penetrated ([4]; 24 h): 10.85 ± 3.8 % Applied Dose
- Fold-Enhancement ([4]; 24 h): 3.02 fold

Compound: CCCCCCCC/C=C/CCCCCCCC(=O)O [elaidic acid]
- Effect on DFMO skin penetration (in words) [2]: devoid of DFMO penetration enhancing properties
- Enhancement of DFMO skin penetration after pretreatment [5]: no increase in skin penetration of DFMO

Compound: CC(C)CCCCCCCCCCCCCCCOC(=O)CCCCCCCCCCCCCCC(C)C [Isostearyl Isosterate, isostearyl isostearate]
- Effect on penetration of DFMO through the skin (in words) [1]: significantly increased the penetration of DFMO through the skin

Compound: CC(C)[C@@H]1CC[C@@H](C)CC1=O [Menthone]
- Fold Enhancement of DFMO penetration ([2]; Golden Syrian, hamster, 10 %): 1.99 ± .40 fold

Compound: Tween-80
- Fold Enhancement of DFMO penetration [2]: 0.502 ± .14 fold
- Reduction in DFMO penetration [2]: ~50%

Compound: CC12CCC(CC1)C(C)(C)O2 [Cineole, 1,8-cineole]
- Fold Enhancement of DFMO penetration ([2]; Golden Syrian, hamster, 10 %): 1.91 ± .51 fold

Compound: Capric/Caprylic Triglyceride [Captex]
- Effect on DFMO skin penetration (in words) [3]: increase in DFMO skin penetration
